Patent US9526250B2, “Methods for delaying maturity of crops” (Plant Protectants, LLC, priority 2009, dated 2016)

Assays:
[1] = test system: oranges (Navels); experiment: Fruit dipping of oranges at color break, peel color development (example 2); format: in vivo, navel oranges; conditions: 2 min immersion at 50° F., incubated at 15° C., chart of FIG. 1 (1-8), initial color 5.5
Excerpt: (§1) The invention is further illustrated by the following non-limiting examples. It is to be appreciated that, although each of the exemplary experiments used potassium phosphite, that other salts of phosphorous acid, including without limitation, ammonium, sodium, and/or calcium salts, as well as phosphorous acid itself may also have been used. For examples 1 and 2 below, assessment of citrus fruit peel color was made using the following color grading charts (FIG. 1 for Navels; FIG. 2 for Lemons) in addition to the Dictionary of Color by Maerz and Paul, First Edition (1930). All experiments were conducted in solutions at approximately pH 6, although pH ranges from between about 3 and about 9 are acceptable.
Five different treatments (A-E below) were made. There were four replications for each of the five treatments, with each replicate comprising six fruit pieces. Thus, each treatment was applied to 24 fruit pieces. The fruit treated in this example were oranges at the color break stage, the fruit being predominantly green with some development of orange color (initial color 5.5). […]
(§2) After the treatments were applied and left to dry for 10 minutes, all treatments were recorded for peel color using FIG. 1 above and the Dictionary of Color, and rated for color development and photographed. The fruit was placed in humid incubators at 15° C. and monitored weekly for color development. […]

[2] = test system: firm green tomatoes; experiment: Fruit dipping of firm green tomatoes, peel color development (example 4); format: in vivo; conditions: 2 min immersion at 75° F., incubated at 30° C., USDA chart of FIG. 5, initial 3.5
Excerpt: For example 4 below, assessment of the tomato peel color was made using the USDA color grading chart (FIG. 5) in addition to the Dictionary of Color.
The color grading chart (FIG. 5) is a reproduction of the “Tomato Color Standards USDA Visual Aid TM-L-1” which consists of a chart containing twelve color photographs illustrating certain color classification requirements. The official USDA chart is incorporated herein by this reference. Table 6 below sets forth approximate cross-references to the Dictionary of Color for the 12 colors of the USDA chart:
In example 4, five different treatments (A-E below) were made. There were four replications for each of the five treatments, with each replicate comprising six fruit pieces. Thus, each treatment was applied to 24 fruit pieces. The fruit treated in this example were firm green tomatoes according to the chart above was 3.5 (initial color 11-C-22) at the onset of color break. Immersion temperatures were approximately 75° F. (24° C.). […]
After the treatments were applied and left to dry for 10 minutes, all treatments were recorded for peel color using the Dictionary of Color and also the USDA Tomato Color Standards Chart (FIG. 5 herein), and rated for color development and photographed. […] (86° F.) and monitored weekly for color development. […]

[3] = test system: navel orange tree (variety Cara Cara); experiment: Field spray of navel orange trees in situ, fruit color development (example 3); format: in vivo; conditions: Navels on trees, pH about 5-6, assessed approximately 30 days later, chart of FIG. 1
Excerpt: Five different treatments (T1-T5 below) were made. There were four replications for each of the five treatments, with each replicate comprising one navel orange tree (variety Cara Cara) in situ. Thus, each treatment was applied to 4 different trees. Treatments were all made using a motorized high volume agricultural sprayer and an application volume equivalent to 5000 L/ha (liters/hectare), or approximately 530 gallons/acre. This is approximately equivalent to 12.5 L (3.3 gal)/tree. The trees were sprayed during early color break (late October/early November) with a wetting agent added at 0.01% (v/v).
Treatments were as follows: • T1. Untreated trees=control. • T2. Water solution containing gibberellic acid at 16 ppm. • T3. Water solution containing potassium phosphite (expressed as equivalent amount of phosphorous acid) sprayed at 600 ppm. • T4. A tank water mixture of potassium phosphite (expressed as equivalent amount of phosphorous acid) sprayed at 300 ppm plus gibberellic acid at 16 ppm • T5. […]
The spray tank pH for all the treatments T2-T5 were adjusted with citric acid to a pH of between about 5 and about 6 (in accordance with the manufacturers instructions for gibberellic acid usage), and a small amount of a non ionic wetter added to the tank (0.01% v/v). […] The fruit on the trees were assessed for color development approximately 30 days later, during December. […]

[4] = test system: green lemons; experiment: Fruit dipping of green lemons, peel color development (example 1); format: in vivo; conditions: 2 min immersion at 50° F., incubated at 15° C., chart of FIG. 2 (1-8), initial color approx 5.5
Excerpt: as §1
Five different treatments (A-E below) were made. There were four replications for each of the five treatments, with each replicate comprising six fruit pieces. Thus, each treatment was applied to 24 fruit pieces. […]
as §2, with “FIG. 2” for “FIG. 1”

[5] = gibberellic acid 100 ppm in water

Row | Compound | Mean Color Rating ([1]; 2% (w/w) potassium phosphite) | Mean Color Rating ([2]; 2% (w/w) potassium phosphite) | Mean Color Rating ([3]; potassium phosphite 600 ppm (as phosphorous acid) sprayed at 5000 L/ha) | Mean Color Rating ([4]; 2% (w/w) potassium phosphite) | Mean Color Rating [1, 5] | Mean Color Rating ([2]; gibberellic acid 100 ppm) | Mean Color Rating ([3]; gibberellic acid 16 ppm sprayed at 5000 L/ha) | Mean Color Rating [4, 5]
1 | potassium phosphite | 3.5 bc | 4.8 b | 3.5 bc | 3.6 c |  |  |  | 
2 | C=C1C[C@]23C[C@@]1(O)CC[C@H]2[C@@]12C=C[C@H](O)[C@@](C)(C(=O)O1)[C@H]2[C@@H]3C(=O)O [Gibberellic acid (GA), gibberellic acid] |  |  |  |  | 3.2 b | 4.6 b | 3.2 b | 3 b
